Values joined by “and” are separate entries in the source; they are usually repeats but may differ in a detail not shown here. Equal values may be shown once. Where only a bound is given, the exact number is not on record here.

For data set [1], the system named is P. falciparum CoA synthesis pathway. As to the kind of experiment: Coenzyme A chemical rescue assay on P. falciparum. The format is cell-based, Plasmodium falciparum. To be noted: for antiplasmodial activity of control compounds upon CoA supplementation / IC50 shift upon CoA supplementation: eight-point dose response, n = 2; for antiplasmodial activity of control compounds upon CoA supplementation: fixed CoA; for CoA rescue (relative parasite number, % of untreated control): at 2 μM compound, with CoA supplementation; for IC50 shift upon CoA supplementation: fixed CoA (0.8-2 mM). On the procedure: The well-established P. falciparum imaging assay was modified to allow assessment of chemical rescue with CoA. In brief, sorbitol (5% w/v) synchronization was performed twice, approximately 8 hr apart, on each synchronization day for two consecutive ring cycles, i.e., on day 1 and 3 of assay preparation. On day 2 the culture was split to approximately 2% trophozoite parasitaemia. On day 4 the culture was split to 1-1.5% trophozoite parasitaemia, which yielded approximately 8% ring parasitaemia after 48 hr (on day 5, i.e., the day of the assay set-up). Compound stocks (10 mM in 100% DMSO) were diluted 1:25 in sterile water, less than 24 hr prior to use. An additional 1:10 dilution was performed, resulting in a 1:250 overall compound dilution and a final DMSO concentration of 0.4%. For initial screening, compounds were tested at a final 2 μM concentration. […] The known P. falciparum CoA synthesis inhibitor, panthenol, was prepared as a 100 mM solution in 4% DMSO. The final concentration of the dose response curve of panthenol started at 10 mM and was serially diluted down to 100 nM. CoA was dissolved in water. […] Five μl of the 1:25 diluted test compound or control solutions were added to 384-well CellCarrier imaging plates (PerkinElmer). For the chemical rescue, 5 μl of CoA solution were added to ‘rescue’ wells and 5 μl water to all control and reference wells, respectively. Parasite culture was added to a final concentration of 1% parasitaemia (% P) and 0.3% haematocrit (% H). Plates were incubated for 72 hr at 37°C, 5% CO2 and 95% humidity. On day 8 the permeabilization and nuclear staining buffer was prepared in PBS containing 10 μg/ml saponin, 0.01% triton X, 5 mM EDTA (all: Sigma) and 0.5 μg/ml 4′,6-diamidino-2-phenylindole (DAPI; Life Technologies). The plates were left for at least 4 hr (typically overnight), before confocal imaging on an Opera™ High Content Screening Platform (PerkinElmer) at 405 nm excitation with a 20x water objective. Automated primary image analysis was performed concurrent with the imaging process, utilizing an Acapella® software (PerkinElmer) script to determine the number of parasites based on object size and fluorescence intensity. Determination of the % growth compared to controls (2 μM artemisinin as positive and 0.4% DMSO as negative control) was performed in Microsoft® Excel 2010. Statistical analysis including IC50 determination and graphical output was performed in GraphPad Prism® 5 using non-linear regression variable slope curve fitting. Cell-based high throughput screening (HTS) entails the distinct benefit that positive hits have already proven effective against the live parasite within its natural host erythrocyte environment. Modifications of an image-based assay were undertaken to identify compounds that interfere with the P. falciparum CoA pathway. The modification involved a chemical rescue approach adapted from a similar method used to investigate apicoplast function. The principle idea of the chemical rescue approach is that supplementation of an unbranched pathway’s end product – in this case CoA - should abrogate, or at least alleviate, negative growth effects of compounds inhibiting any step in the pathway. […] To identify new potential CoA synthesis inhibitors, the CoA chemical rescue approach was used to screen 144 compounds with known antiplasmodial activity identified by HTS in the Avery laboratory, in addition to the MMV malaria box. […] Compounds which rescued growth to at least 50% of control values and two-fold difference compared to treatment alone, were regarded as partial rescue hits.

In data set [2] the test system is Plasmodium falciparum strain 3D7. As to the kind of experiment: Plasmodium falciparum growth inhibition imaging assay. To be noted: for parasite growth inhibition: 2 μM; for IC50: P. falciparum 3D7, 72 hr; for IC50 / P. falciparum growth: n = 3; for P. falciparum growth: 3D7, dose response. In kind it is cell-based. Here is the method: In vitro parasite culture was maintained in RPMI with 10 mM Hepes (Life Technologies), 50 μg/ml hypoxanthine (Sigma) and 5 mg/ml AlbuMAX II® (Life Technologies). Human O + erythrocytes were obtained from the Australian Red Cross Blood Service (Agreement No: 13-04QLD-09). The parasites were maintained at 2-8% parasitaemia (% P) at 5% haematocrit (% H), incubated at 37°C, 5% CO2, 5%O2 and 90% N2 and 95% humidity. The well-established P. falciparum imaging assay was modified to allow assessment of chemical rescue with CoA. In brief, sorbitol (5% w/v) synchronization was performed twice, approximately 8 hr apart, on each synchronization day for two consecutive ring cycles, i.e., on day 1 and 3 of assay preparation. On day 2 the culture was split to approximately 2% trophozoite parasitaemia. On day 4 the culture was split to 1-1.5% trophozoite parasitaemia, which yielded approximately 8% ring parasitaemia after 48 hr (on day 5, i.e., the day of the assay set-up). Compound stocks (10 mM in 100% DMSO) were diluted 1:25 in sterile water, less than 24 hr prior to use. An additional 1:10 dilution was performed, resulting in a 1:250 overall compound dilution and a final DMSO concentration of 0.4%. For initial screening, compounds were tested at a final 2 μM concentration. For dose response curves of the active compounds, a semi-logarithmic serial dilution (containing three data points per log) was prepared at 40 μM top concentration for test compounds and 2 μM for the positive control, artemisinin. The known P. falciparum CoA synthesis inhibitor, panthenol, was prepared as a 100 mM solution in 4% DMSO. The final concentration of the dose response curve of panthenol started at 10 mM and was serially diluted down to 100 nM. CoA was dissolved in water. The final CoA concentration for optimal rescue results was determined for each CoA batch and ranged between 0.8-2 mM. Five μl of the 1:25 diluted test compound or control solutions were added to 384-well CellCarrier imaging plates (PerkinElmer). For the chemical rescue, 5 μl of CoA solution were added to ‘rescue’ wells and 5 μl water to all control and reference wells, respectively. Parasite culture was added to a final concentration of 1% parasitaemia (% P) and 0.3% haematocrit (% H). Plates were incubated for 72 hr at 37°C, 5% CO2 and 95% humidity. On day 8 the permeabilization and nuclear staining buffer was prepared in PBS containing 10 μg/ml saponin, 0.01% triton X, 5 mM EDTA (all: Sigma) and 0.5 μg/ml 4′,6-diamidino-2-phenylindole (DAPI; Life Technologies). The plates were left for at least 4 hr (typically overnight), before confocal imaging on an Opera™ High Content Screening Platform (PerkinElmer) at 405 nm excitation with a 20x water objective. Automated primary image analysis was performed concurrent with the imaging process, utilizing an Acapella® software (PerkinElmer) script to determine the number of parasites based on object size and fluorescence intensity. Determination of the % growth compared to controls (2 μM artemisinin as positive and 0.4% DMSO as negative control) was performed in Microsoft® Excel 2010. Statistical analysis including IC50 determination and graphical output was performed in GraphPad Prism® 5 using non-linear regression variable slope curve fitting.

The subject of data set [3] is HEK293 cells. As to the kind of experiment: HEK293 viability assay (resazurin). In kind it is cell-based, human. To be noted: for IC50: HEK293, 72 hr, top concentration 40 μM, n = 3. On the procedure:
(§1) To assess cytotoxicity of compounds in dose response, a resazurin-based assay was utilized to determine cell viability. In brief, HEK293 cells were grown in DMEM medium (Life Technologies) containing 10% foetal calf serum (FCS; Gibco). Cells were trypsinized, counted and seeded at 2,000 cells per well in 45 μl media into TC-treated 384-well plates (Falcon) and left to adhere overnight at 37°C, 5% CO2 and 95% humidity.
(§2) Test compounds were prepared as described above, to give a top final test concentration of 40 μM, 0.4% DMSO. Plates were incubated for 72 hr at 37°C, 5% CO2 and 95% humidity, then the media was removed and replaced by 35 μl of 44 μM resazurin in DMEM without FCS. The plates were incubated for another 4-6 hr at 37°C, 5% CO2 and 95% humidity before reading on an EnVision® Plate Reader (PerkinElmer) using fluorescence excitation/emission settings of 530 nm/595 nm. Determination of the% growth compared to controls (40 μM puromycin as positive and 0.4% DMSO as negative control) was performed in Microsoft® Excel 2010. Statistical analysis including IC50 determination and graphical output was performed in GraphPad Prism® 5 using nonlinear regression variable slope curve fitting.
(In general: Alamar Blue is a resazurin reagent that responds to reducing activity.)

The test system of data set [4] is HEK293 cells. The data set can be described thus: CoA chemical rescue on HEK293 cells. In kind it is cell-based, human. To be noted: dose response with and without CoA, n = 2. Here is the method: as §1
as §2, with “Plates” for “Test compounds were prepared as described above, to give a top final test concentration of 40 μM, 0.4% DMSO. Plates”

Consider `C[C@@H]1CC[C@H]2[C@@H](C)C(=O)O[C@@H]3O[C@@]4(C)CC[C@@H]1[C@]32OO4` [artemisinin, reference compound], for which, in data set [1], the “antiplasmodial activity of control compounds upon CoA supplementation” value (“antiplasmodial activity” for short) is on record as “not reduced by CoA supplementation”.

One may read the IC50 as the midpoint of a concentration-inhibition curve. Higher therefore signals a need for much substance. Regarding `OC1CCCCC1C1(NC(=S)Nc2ccccc2)CCCCC1` (stereo not shown) [Amb2368822/(MMV665980)], the parasite growth inhibition in data set [2] (MMV malaria box screen) was 27%; in data set [2] (original single dose screen, focussed compound library plate) it was 66%; in data set [2] (retested twice from freshly dissolved solid), 98% and 90%. Moreover, in data set [2] (100% DMSO stock at -20°C), the “compound stability (inferred from lower activity of stored stock solution)” value was “potentially unstable”. Besides, the “SI (selectivity index)” value in data set [2] (HEK293 IC50 value divided by P. falciparum IC50 value) is listed as greater than 6.3. The IC50 in data set [2] is 6.31 µM; in data set [2] (listed as Amb2368822), 6.3 µM; in the data set on HEK293 cells [3], greater than 40 µM. Besides, the “CoA rescue (relative parasite number, % of untreated control)” value in data set [1] stood at 80% rescue at 2 μM. In data set [1], the “IC50 shift upon CoA supplementation” value is given as “more than doubled”.

As to `CC(=O)C1=C(c2ccccc2)C(=O)c2ccccc2C1=O` [Amb4317088], in data set [2], 1.23 µM corresponded to half-maximal inhibition (IC50). Further, the “cytotoxic effect on HEK293 cells upon CoA addition” value in the data set on HEK293 cells [4] is given as “reduced upon CoA addition”. Further, in data set [1], the “CoA rescue (relative parasite number, % of untreated control)” value is on record as 80% rescue at 2 μM and the “IC50 shift upon CoA supplementation” value was “more than doubled”. Also, the IC50 in the data set on HEK293 cells [3] turned out to be 2.33 µM.

Regarding `Cc1ccc(C(C)C)c(OCc2nc3ccccc3n2C)c1` [Amb1541406], the “inhibition of P. falciparum 3D7” value in data set [2] (at 40 μM) turned out to be 85% inhibition at 40 μM. In data set [1], the “CoA rescue (relative parasite number, % of untreated control)” value was 80% rescue at 2 μM and the “IC50 shift upon CoA supplementation” value came to 1.5 times. The compound also registered an IC50 in the data set with HEK293 cells [3] greater than 40 µM.

Take `CC(C)(COP(=O)(O)OP(=O)(O)OC[C@H]1O[C@@H](n2cnc3c(N)ncnc32)[C@H](O)[C@@H]1OP(=O)(O)O)[C@@H](O)C(=O)NCCC(=O)NCCS` [CoA, Coenzyme A]: the P. falciparum growth entry in data set [2] was “not significantly altered”.

Take `CCc1nc(N)nc(N)c1-c1ccc(Cl)cc1` [pyrimethamine, reference compound]: the “antiplasmodial activity” value in data set [1] is “not reduced by CoA supplementation”.

As to `CC(C)(CO)C(O)C(=O)NCCCO` (stereo not shown) [Panthenol, panthenol, reference compound], in data set [2], the P. falciparum growth entry is on record as “dose-dependent P. falciparum growth inhibitor”. In addition, the “cytotoxic effect on HEK293 cells upon CoA addition” value in the data set on HEK293 cells [4] is given as “completely negate”. Further, in data set [1] (CoA supplementation between 1 and 2 mM), the “CoA rescue of growth inhibitory effect” value is reported as “fully rescued”. For the same compound, in data set [1], the “antiplasmodial activity” value is recorded as “counteracted by CoA”. Also, the “cytotoxicity against HEK293 cells” value in the data set on HEK293 cells [3] (at 40 μM) is given as “cytotoxic effect”.

`COc1ccc(C[C@H](N)C(=O)N[C@H]2[C@@H](O)[C@H](n3cnc4c(N(C)C)ncnc43)O[C@@H]2CO)cc1` [puromycin, reference compound]: the “cytotoxic effect on HEK293 cells upon CoA addition” value with HEK293 cells [4] is given as “no impact”.

Source of the values: paper PMC4168161, “A novel approach for the discovery of chemically diverse anti-malarial compounds targeting the Plasmodium falciparum Coenzyme A synthesis pathway” (Malaria Journal, 2014).
